In series [1] the test system is J774.1 murine macrophages. As to the kind of experiment: nonspecific cytotoxicity on mammalian cells, MTT. It counts as cell-based. The conditions noted are these: for IC50: Mus musculus, J774.1, 48 h, MTT, read-out: IC50 ± SD (µM) Murine Macrophages; for SI J774.1/T. cruzi: ratio IC50 murine macrophages / IC50 T. cruzi epimastigotes; for SI J774.1/L. amazonensis: ratio IC50 murine macrophages / IC50 L. amazonensis promastigotes.

Series [2] concerns T. cruzi blood trypomastigotes of the Y strain. The experiment in a line: in vivo anti-T. cruzi study (acute Chagas model). On the set-up: species or system Trypanosoma cruzi. The settings on record: BALB/c mice, 50 mg/kg/day oral for 14 days; for Number of Parasites (Chagas): peak of parasitemia; for % of Reduction (Chagas): reduction of parasitemia vs control.
In series [3] the test system is T. cruzi epimastigotes, Tulahuen 2 strain (genotype TcVI). As to the kind of experiment: in vitro anti-T. cruzi activity, epimastigote growth (absorbance 600 nm). The series is classed as cell-based, Trypanosoma cruzi. The procedure:
Control parasites were cultivated in 0.4% DMSO. Each concentration of the compound was evaluated in duplicate.

The subject of series [4] is L. amazonensis (promastigotes). The experiment in a line: in vitro anti-Leishmania activity, promastigotes, resazurin. It counts as cell-based. The conditions noted are these: maximum dose tested 25 µM, read-out: IC50 ± %SD (µM) L. amazonensis.
Series [5] deals with L. infantum (MHOM/BR/2002/LPC-RPV) promastigotes. The series is described as above. The series is classed as cell-based, Leishmania infantum.
Series [6] deals with L. infantum .uy (parasites isolated from two dogs in the first Leishmaniasis outbreak in Uruguay). As to the kind of experiment: in vitro activity against L. infantum isolated from dogs in Uruguay. The series is classed as cell-based, Leishmania infantum. The settings on record: for IC50: Leishmania infantum, read-out: IC50 ± %SD (µM) L. infantum .uy. The procedure:
Compounds were dissolved in dimethylsulfoxide (DMSO).
For assessing the amastigote form of all Leishmania strains were cultured in the RPMI described above. Parasites were seeded at 1 × 10^6 cells/mL and at each time point counted at least five times to obtain a growth curve. […] Control conditions of parasites without drug (100% growth) and medium without parasites were included. After 72 h at 28 °C parasite viability was determined by the resazurin method described. Infection with L. infantum. THP-1 monocytes (ATCC®TIB-202™) were grown following ATCC recommendations and seeded at 30,000 cells/well onto 18-mm round glass coverslips in 12 wells. For stimulation cells were incubated with 100 nM of PMA for 48 h, PMA was washed and cells left with growth media for 24 h more after incubation with parasites. 30,000 parasites/well were added and left to interact. After 48 h, coverslips were washed with PBS, fixed with 95% (v/v) ethanol, and stained with Fluoroshield™ with DAPI (Sigma). Infectivity was assessed considering invasion and replication capacity counting infected cells and parasites per infected cell, respectively. Infectivity index calculation = (% of infected cells X (amastigotes per cell))/number of total counted cells. Image acquisition was made with a Leica TCS-SP5 laser scanning confocal microscope (Leica Microsystems GmbH, Wetzlar, Germany) using the LASAF v.2 software (Leica Microsystems, Wetzlar, Germany) and observed using a 356 nm laser excitation line and an emission bandwidth from 461 nm under a 20× water immersion objective. Further image analysis, including quantitation and processing of figures were made using Fiji (http://fiji.sc/).

Series [7] concerns promastigotes L. braziliensis/ L. amazonensis. As to the kind of experiment: in vitro anti-Leishmania activity, promastigotes (Table 1S). The series is classed as cell-based. The conditions noted are these: read-out: IC50 ± %SD (µM) promastigotes L. braziliensis/ L. amazonensis.
Series [8] relates to L. infantum amastigotes in human macrophages (THP-1). As to the kind of experiment: human macrophages infected with L. infantum (amastigotes), infectivity index. The series is classed as cell-based. The settings on record: Leishmania infantum, two strains of L. infantum (reference strain and isolated from dogs).
Series [9] has as its system primary culture of macrophages from mice bone marrow. As to the kind of experiment: cytotoxicity on primary culture of macrophages, MTT. The conditions noted are these: 25 µM, 48 h, compared with J774.1. It counts as cell-based.
Series [10] has as its system L. amazonensis (IFLA/BR/1967/PH8). The experiment in a line: in vivo anti-Leishmania study in cutaneous mice model. Set-up: species or system Leishmania amazonensis. The settings on record: BALB/c mice, 50 mg/kg oral.
Series [11] can be described thus: liver fraction stability study (TLC). It counts as in vitro ADME. The conditions noted are these: rat liver fractions, 400 µM, 37 °C, 4 h.
Series [12] can be described thus: solubility (qualitative). The conditions noted are these: for solubility in the conditions of the mammalian cell assay, in words: maximum dose tested 25 µM. It counts as physicochemical.
The nature of series [13]: in vivo acute oral toxicity (OECD up and down). The settings on record: male, B6D2F1, mouse, 2000 mg/kg.
Procedure: Briefly, healthy young adult male B6D2F1 mice (30 days old, 25 to 30 g) were used in this study. Initially, the compound was dissolved in the vehicle described above (3.4 section) and was administered at 2000 mg/kg, by orogastric cannula, to one animal. The animal was fasted, maintained, and observed for 48 h. If the mouse survives, another animal receives the same dose, and 48 h later, a third animal. If there are no toxicity signs the experiment is finished 14 days after administration, with the euthanasia of the animals according to the OECD guidelines. Observations of the general status of the organs were performed after sacrifice.
The test system of series [14] is L. infantum, L. braziliensis, L. amazonensis promastigotes and T. cruzi epimastigotes. As to the kind of experiment: phenotypic screening against parasites in vitro (overall statements).
Procedure: For the in vitro anti-T. cruzi activity, we used epimastigotes of the Tulahuen 2 strain (genotype TcVI) grown in an axenic milieu (BHI-Tryptose). Cells from a 5–7-days-old culture were inoculated in fresh culture milieu to give an initial concentration of 10^6 cells/mL. The absorbance at 600 nm of the cells in culture was measured every day. […] Control parasites were cultivated in 0.4% DMSO. Each concentration of the compound was evaluated in duplicate. At five days, the absorbance of the culture was measured and compared to the control and the IC50 values calculated for each compound using OriginLab8.5® sigmoidal regression.
Series [15] relates to L. infantum .uy (parasites isolated from two dogs in the first Leishmaniasis outbreak in Uruguay). As to the kind of experiment: in vitro activity against L. infantum isolated from dogs in Uruguay. The series is classed as cell-based, Leishmania infantum. The conditions noted are these: read-out: IC50± %SD (µM) promastigotes L. infantum uy*p/c.
Setting [16] is: Trypanosoma cruzi, TULAHUEN, epimastigotes, maximum dose tested 25 µM, read-out: IC50 ± %SD (µM) T. cruzi.
Where [17] appears, read: Leishmania infantum, promastigotes, maximum dose tested 25 µM, read-out: IC50 ± %SD (µM) L. infantum.
Setting [18] is: Trypanosoma cruzi, TULAHUEN, Table 1S, read-out: IC50 ± %SD (µM) epimastigotes T. cruzi.
[19] abbreviates: Table 1S, read-out: IC50 ± %SD (µM) epimastigotes T. cruzi.
[20] abbreviates: Table 1S, read-out: IC50 ± %SD (µM) promastigotes L. infantum.
The mark [21] stands for this setting: Table 1S, one value printed for p/c.

Molecules are shown by their SMILES. Where two headings read alike, the source gives them in different places.

By melting point is commonly meant the temperature of the solid-liquid transition. The term LD50 denotes the dose expected to kill half of the subjects tested.

As to `O=C(Cn1ccnc1[N+](=O)[O-])NCc1ccccc1` [Benznidazole, reference compound], in [1], the IC50 turned out to be 400 ± 4 µM and the “SI J774.1/T. cruzi” value was found to be 57. Besides, in [2], the “% of Survivals (Chagas)” value was 100%, the “Number of Parasites (Chagas)” value was “(0.01 ± 0.01) × 10^6 per mL blood” and the “% of Reduction (Chagas)” value stood at 96%.
In turn, `C[C@]12CC[C@H]3[C@@H](CC=C4CC(O)CC[C@@]43C)[C@@H]1CC[C@@H]2C(=O)/C=C/c1ccccc1Cl` (stereo partly shown) [Compound 2] registered a melting point of 149 to 151 °C. Moreover, in series [3] (setting [16]), the IC50 stood at 12 ± 3 µM. In addition, the IC50 in series [4] was 23 ± 5 µM. For the same compound, the “activity against Leishmania infantum from Fiocruz collection, in words” value in series [5] is given as “active”. Also, the IC50 in [5] (setting [17]) is greater than 25 µM. Moreover, in [6], the “active against the strains isolated from Uruguayan dogs, in words” value is listed as “not” and the IC50 was greater than 25 µM. In addition, in series [1], the IC50 was 100 ± 10 µM, the “SI J774.1/L. amazonensis” value was determined as 4 and the “SI J774.1/T. cruzi” value was determined as 8. Also, the IC50 in series [7] came to 23 ± 5 µM.
`C/C(=N\NC(N)=S)[C@H]1CC[C@H]2[C@@H]3CC=C4CC(O)CC[C@]4(C)[C@H]3CC[C@]12C` (stereo partly drawn) [Compound 8, 1-(3β-Hydroxy-pregn-5-ene-20E-ylidene)thiosemicarbazone]: the IC50 in series [3] (setting [16]) was 1.2 ± 0.3 µM; in series [4], less than 22 µM; in series [5] (setting [17]) it was 0.2 ± 0.1 µM; in [6], 0.2 ± 0.1 µM; in [8], less than 0.2 µM; in series [1], 50 ± 3 µM. In addition, the IC50 in series [7] was less than 22 µM; in [14] (Trypanosoma cruzi, read-out: IC50 in vitro (abstract)) it was 0.2 µM. For the same compound, the “SI J774.1/L. amazonensis” value in series [1] is greater than 2. For the same compound, in series [1] (ratio IC50 murine macrophages / IC50 L. infantum promastigotes), the “SI J774.1/L. infantum” value came to 250. The “SI J774.1/T. cruzi” value in series [1] was determined as 42. The “cytotoxicity on primary culture of macrophages, in words” value in series [9] was “the same results were obtained”. For the same compound, in series [2], the “% of Survivals (Chagas)” value amounted to 100%. In addition, the “Number of Parasites (Chagas)” value in [2] is listed as “(0.14 ± 0.03) × 10^6 per mL blood”. Moreover, in [2], the “% of Reduction (Chagas)” value is listed as 62%. The “% of Reduction (Leishmaniasis)” value in series [10] was 27%. The “% of Survivals (Leishmaniasis)” value in series [10] worked out at 100%. The “Number of Parasites (Leishmaniasis)” value in [10] (parasites in the lesion at the end of the experiment) is given as “(21 ± 4) × 10^6”. Besides, in [11], the “metabolic stability in cytosolic and microsomal liver fraction” value is on record as “stable”. In addition, in series [12], the “solubility in water, in words” value is “poor solubility in water”. For the same compound, the LD50 at 14 days in [13] is greater than 2000 mg/kg. For the same compound, in series [14] (against Leishmania), the “times more active than Miltefosine in vitro” value is listed as “five times more active”. The “times more active than Nfx and Bnz in vitro” value in series [14] (against T. cruzi) came to 35. For the same compound, the “antiparasitic activity (active: IC50<25 µM), in words” value in series [14] (all parasites/strains tested, maximum dose 25 µM) is “consistently active against all strains”.
As for `C=CCNC(=S)N/N=C(\C)[C@H]1CC[C@H]2[C@@H]3CC=C4CC(O)CC[C@]4(C)[C@H]3CC[C@]12C` (stereo partly drawn) [Compound 9, 1-(3β-Hydroxy-pregn-5-ene-20E-ylidene)-4-Allylthiosemicarbazone], the melting point is 229 to 233 °C. In series [3] (setting [18]), the IC50 came to 7.8 µM. Further, the IC50 in [3] (setting [16]) came to 8 ± 2 µM. The “activity against Leishmania infantum from Fiocruz collection, in words” value in [5] is “active”. For the same compound, the IC50 in series [5] (setting [17]) was greater than 25 µM. In addition, in [6], the “active against the strains isolated from Uruguayan dogs, in words” value is reported as “not” and the IC50 was greater than 25 µM. In series [1], the IC50 was found to be 25 ± 2 µM and the “SI J774.1/T. cruzi” value is on record as 3. In addition, the “solubility in the conditions of the mammalian cell assay, in words” value in [12] is “poorly soluble”.
For `C/C(=N\NC(=S)Nc1ccccc1)[C@H]1CC[C@H]2[C@@H]3CC=C4CC(O)CC[C@]4(C)[C@H]3CC[C@]12C` (stereo partly drawn) [Compound 10, 1-(3β-Hydroxy-pregn-5-ene-20E-ylidene)-4-phenylthiosemicarbazone], the melting point was 215 to 217 °C. In series [3] (setting [16]), the IC50 is 25 ± 3 µM. Moreover, the IC50 in series [5] (setting [17]) is greater than 25 µM. Besides, in series [6], the IC50 is greater than 25 µM. For the same compound, in series [1], the IC50 turned out to be 25 ± 5 µM and the “SI J774.1/T. cruzi” value stood at 1. For the same compound, the “solubility in the conditions of the mammalian cell assay, in words” value in series [12] is “poorly soluble”.
`C=CCn1c(-c2ccc(Br)cc2)csc1=NN=C(C)C1CCC2C3CC=C4CC(O)CCC4(C)C3CCC12C` (stereo not drawn) [Compound 11, 1-(3β-Hydroxy-pregn-5-ene-20E-ylidene)-2-(3-allyl-4-(4-bromo-pheny)thiazol-2(3H)-ylidene)azine] had a melting point of 179 to 183 °C. In [3] (setting [16]), the IC50 is greater than 25 µM. The IC50 in series [4] is 16 ± 3 µM. Besides, the IC50 in [5] (setting [17]) was greater than 25 µM. Moreover, the IC50 in [6] was greater than 25 µM. Besides, the IC50 in [7] is 16 ± 3 µM.
Regarding `CSc1ccc(/C=C/C(=O)[C@H]2CCC3C4CC=C5C[C@@H](O)CC[C@]5(C)C4CC[C@@]32C)cc1` (stereo partly shown) [Compound 15], the IC50 in series [3] (setting [19]), in series [5] (setting [20]), in [7] and in series [15] (setting [21]) was greater than 25 µM each time.
`CC(/C=C/C(=O)[C@H]1CC[C@H]2[C@@H]3CC=C4CC(O)CC[C@]4(C)[C@H]3CC[C@]12C)=C\c1ccco1` (stereo partly drawn) [Compound 16, (2E,4E)-5-(furan-2-yl)-1-((8S,9S,10R,13S,14S,17S)-3-hydroxy-10,13-dimethyl-2,3,4,7,8,9,10,11,12,13,14,15,16,17-tetradecahydro-1H-cyclopenta[a]phenanthren-17-yl)-4-methylpenta-2,4-dien-1-one] returned a melting point of 110 to 113 °C. Moreover, the IC50 in series [3] (setting [18]) was greater than 25 µM. Besides, the IC50 in series [5] (Leishmania infantum, Table 1S, read-out: IC50 ± %SD (µM) promastigotes L. infantum) was greater than 25 µM. Further, in series [7], the IC50 worked out at 23 ± 3 µM. In addition, the IC50 in series [15] (Leishmania infantum) is greater than 25 µM.
For the compound `C[C@]12CC[C@H]3[C@@H](CC=C4CC(O)CC[C@@]43C)[C@@H]1CC[C@@H]2C(=O)/C=C/C=C/c1cccs1` (stereo partly drawn) [Compound 17, (2E,4E)-5-(thiofen-2-yl)-1-((8S,9S,10R,13S,14S,17S)-3-hydroxy-10,13-dimethyl-2,3,4,7,8,9,10,11,12,13,14,15,16,17-tetradecahydro-1H-cyclopenta[a]phenanthren-17-yl)penta-2,4-dien-1-one], the IC50 in [3] (setting [19]), in [5] (setting [20]), in [7] and in [15] (setting [21]) was greater than 25 µM throughout.

The values are drawn from paper PMC6832524, “A Nature-Inspired Design Yields a New Class of Steroids Against Trypanosomatids” (Molecules, 2019).
